{
  "source": "patent EP0476645B1",
  "about": "“Calcium uptake inhibitors” (MERRELL DOW PHARMACEUTICALS INC., priority 1990, dated 1992)",
  "tested_on": "Rat PMNL",
  "test": "Measurement of intracellular calcium in fMLP-stimulated PMNL preloaded with Fura-2",
  "format": "cell-based",
  "settings": "fMLP stimulus, preincubation with compound 15 minutes at 37°C, concentrations in figure 1",
  "method": "Rat PMNL were obtained from exudates resulting from peritoneal injection of 6 mL of 8% sodium caseinate. Eighteen hours after injection rats were killed by carbon dioxide inhalation and the peritoneal cavity lavaged with Hank's balanced salt solution (HBSS). After concentration of the PMNL by centrifugation, contaminating erythrocytes were removed by hypotonic lysis. The PMNL were then washed twice by centrifugation (400 x g for 10 minutes) and resuspended in HBSS. Cell viability was greater than 90% by Trypan Blue exclusion and greater than 90% of the cells were PMNL by Wright-Giemsa stain.\nIntracellular calcium levels were obtained using Fura-2 as fluorescent indicator (Grynkiewicz et al., 1985). Fura-2 was loaded into PMNL as the acetoxymethyl ester (Fura-2/AM) using the method of Korchak et al., (1988). Specifically, 1 X 10⁸ PMNL/mL were incubated in HBSS with 10 µM Fura-2/AM for 10 minutes at 37°C. The cells suspension was then diluted ten fold with HBSS and further incubated for another 20 minutes. The cells were then centrifuged (400 x g for 8 minutes at 25°C) and the PMNL (1 x 10⁷ cells/mL) resuspended in HBSS containing 1% bovine serum albumin. Cells were stored at room temperature and used within 3 hours.\nIntracellular calcium level determinations were made using a dual wavelength spectrofluorometer (Photon Technology International, New Brunswick, NJ). Two mL of PMNL suspension (1 x 10⁷ cells/mL) were stirred magnetically at 37°C. Cells were preincubated with the compounds for 15 minutes at 37°C prior to activation. Where compounds were dissolved in DMSO and added directly, the DMSO never exceeded 0.3% in the final cell suspension. Total change in volume with addition of compounds or vehicle and stimuli never exceeded 3%. Intracellular calcium concentrations were calibrated by setting a maximum calcium level in the cells with the addition of 7 µM ionomycin to PMNL in HBSS containing 1% BSA. This was followed by treatment with 20 mM EGTA for 1 hour to obtain a minimum calcium level. […]",
  "data": [
    {"smiles": "CN(C)c1ccc(C(=O)C#Cc2ccncn2)cc1", "note": "[MDL 102,387, 1-(4-dimethylaminophenyl)-3-(4-pyrimidinyl)-2-propyne-1-one]", "values": [
      {"measurement": "suppression of the second wave of intracellular calcium changes", "value": "selective concentration-dependent suppression"}
    ]}
  ]
}
